# Laboratory results as given in US20050238731A1, “Composition and method for treating the effects of diseases and maladies of the upper digestive tract” (priority 2003, published 2005).
# Legend:
# [1] = open label observation for control of heart burn in volunteers; assay type: in vivo, human; settings: open label observations in people
# From the text: The preferred ingredients of the dietary supplement formulations for preventing or treating or managing upper digestive disorders referred to in this patent including but not limited to acid related disease, H. pylori infection and ulcerogenic medications, drugs or substances such as alcohol, tobacco smoke or any other damaging agent that is ingested or absorbed in to the body that may cause upper digestive disturbance are listed in one formulation that has undergone open label observation for the control of the symptom heart burn in six volunteers with recurrent heart burn and this formulation was made in several batches of a chewable tablet with the following ingredients that have been modified from time to time. These chewable tablets contain the following ingredients with amounts listed in two chewable tablets. The range of the ingredients has been made in different dosage amounts of each ingredient and tested in at least two volunteers for each of six batches of varying dosage of ingredients. Each batch consistently relieved symptoms of mild moderate or severe heart burn in open labeled observations in volunteers with symptoms of gastresophageal reflux disease.
# [2] = tested on: stomach acid secretion; settings: rat model, cited from earlier work
# [3] = tested on: gastric acid secretion; settings: cited from earlier work
Compound,dyspepsia and heartburn [1],stomach acid secretion ([2]; at a certain dosage level),stomach ulcers [2],development of stomach ulcers ([3]; animals exposed to cold water immersion or restraint),gastric acid secretion ([3]; animals),formation of gastric ulcers ([3]; pylorus-ligated animals)
O=c1oc2c(O)c(O)cc3c(=O)oc4c(O)c(O)cc1c4c23 [ellagic acid],has helped people with dyspepsia and heartburn,stomach acid secretion was blocked,ulcers could be prevented in part,–,–,–
salvianolic acid,–,–,–,prevents the development of stomach ulcers,reduce gastric acid secretion,reduce the formation of gastric ulcers
